Values of other authors in patent US20250205171A1, “TRANSDERMAL DELIVERY SYSTEMS FOR CERTAIN FACTOR Xa INHIBITORS AND RELATED METHODS FOR THEIR PREPARATION AND USE” (ARx, LLC, priority 2022, published 2025).

water solubility | SMILES
about 0.11 mg/mL | COc1ccc(-n2nc(C(N)=O)c3c2C(=O)N(c2ccc(N4CCCCC4=O)cc2)CC3)cc1 [apixaban]
2500 to 2700 µg/mL | COc1ccc(NC(=O)c2ccc(C(=N)N(C)C)cc2)c(C(=O)Nc2ccc(Cl)cn2)c1 [betrixaban]
about 0.0048 mg/mL | COc1ccc(C(=O)Nc2cccc(O)c2NC(=O)c2ccc(N3CCCN(C)CC3)cc2)cc1 [darexaban]
about 0.093 mg/mL | CN1CCc2nc(C(=O)N[C@@H]3C[C@@H](C(=O)N(C)C)CC[C@@H]3NC(=O)C(=O)Nc3ccc(Cl)cn3)sc2C1 [edoxaban]
about 0.00717 mg/mL | CO[C@@H]1C[C@H](C(=O)Nc2ccc(-n3ccccc3=O)cc2F)N(C(=O)Nc2ccc(Cl)cc2)C1 [eribaxaban]
about 7.91 mg/mL | CO[C@H]1O[C@H](COS(=O)(=O)O)[C@@H](O[C@@H]2O[C@@H](C(=O)O)[C@@H](O[C@H]3O[C@H](COS(=O)(=O)O)[C@@H](O[C@@H]4O[C@H](C(=O)O)[C@@H](O[C@H]5O[C@H](COS(=O)(=O)O)[C@@H](O)[C@H](O)[C@H]5NS(=O)(=O)O)[C@H](O)[C@H]4O)[C@H](OS(=O)(=O)O)[C@H]3NS(=O)(=O)O)[C@H](O)[C@H]2OS(=O)(=O)O)[C@H](O)[C@H]1NS(=O)(=O)O [fondaparinux]
about 0.217 mg/mL | O=C([C@H](O)CS(=O)(=O)c1ccc2cc(Cl)ccc2c1)N1CCC(N2CCCNC2=O)CC1 [letaxaban]
about 0.0088 mg/mL | COC(=O)[C@H](Cc1cccc(C(=N)N)c1)[C@@H](C)NC(=O)c1ccc(-c2cc[n+]([O-])cc2)cc1 [otamixaban]
about 0.01 mg/mL | O=C(NC[C@H]1CN(c2ccc(N3CCOCC3=O)cc2)C(=O)O1)c1ccc(Cl)s1 [rivaroxaban]
